Earlier results as cited in US8410082B2, “Fluorinated diaryl urea derivatives” (Concert Pharmaceuticals, Inc., priority 2009, dated 2013).

Settings: main circulating metabolite of sorafenib in plasma

[O-][n+]1ccccc1 [pyridine N-oxide]
share of circulating analytes at steady-state: 9-16%
